Data set [1] in a line: Water solubility at 37 degree C. The format is ADME. Particulars: buffer.
Data set [2] deals with B16. Nature of the data set: Compound was tested for growth Inhibition against B16 melanoma cells. The class given is functional, cell-based, Mus musculus.
Data set [3] is described as follows: Compound was tested for growth Inhibition against human TIG-1-20 fibroblast cells. The format is functional, cell-based.
The subject of data set [4] is B16. Nature of the data set: Compound was tested for cytotoxic activity against […] melanoma cells. The format is functional, cell-based, Mus musculus.

`CC1CN1CC(O)CC1CC1` (centres undefined): the S in data set [1] is listed as < 0.001 M,mol dme-3. Also, the IC50 with B16 [2] is 5.4e-6 M,mol dme-3; in data set [3], 0.000018 M,mol dme-3.

Consider `CC1CN1CC(O)CC1CC1COC(CO)CO` (centres undefined), for which the S in data set [1] is 0.0081 M,mol dme-3. For the same molecule, the IC50 in the data set on B16 [4] was 0.000029 M,mol dme-3; in data set [3], 0.000041 M,mol dme-3.

With `CC1CN1CC(O)CC1CC1COC(COC(CO)CO)COC(CO)CO` (centres undefined), the S in data set [1] is listed as > 0.01 M,mol dme-3. Further, the figures for the IC50 (in the data set with B16 [4]; in data set [3]) were 0.00005 M,mol dme-3 and 0.000068 M,mol dme-3, respectively.

Values taken from ChEMBL document CHEMBL1152069, “Synthesis and biological properties of carboranylaziridines bearing cascade polyols” (Bioorg Med Chem Lett, 1996).
